In brackets after ≈: the same amount, converted by molar mass. Several values for one entry are separate records, joined by “and”; a condition that tells them apart may be missing. Identical values can stand only once. Like-named read-outs stand apart in the source and are kept apart here.
Columns and labels:
[1] = target: Epithelial Cell Kinase (ECK) (Homo sapiens, UniProt P29317); test: Inhibition of Epithelial Cell Kinase (ECK), immobilized biotinylated peptide, HRP anti-phosphotyrosine readout; type: biochemical; details: IC50, substrate phosphorylation
Chain of Epithelial Cell Kinase (ECK) (P29317 24-976, species assumed): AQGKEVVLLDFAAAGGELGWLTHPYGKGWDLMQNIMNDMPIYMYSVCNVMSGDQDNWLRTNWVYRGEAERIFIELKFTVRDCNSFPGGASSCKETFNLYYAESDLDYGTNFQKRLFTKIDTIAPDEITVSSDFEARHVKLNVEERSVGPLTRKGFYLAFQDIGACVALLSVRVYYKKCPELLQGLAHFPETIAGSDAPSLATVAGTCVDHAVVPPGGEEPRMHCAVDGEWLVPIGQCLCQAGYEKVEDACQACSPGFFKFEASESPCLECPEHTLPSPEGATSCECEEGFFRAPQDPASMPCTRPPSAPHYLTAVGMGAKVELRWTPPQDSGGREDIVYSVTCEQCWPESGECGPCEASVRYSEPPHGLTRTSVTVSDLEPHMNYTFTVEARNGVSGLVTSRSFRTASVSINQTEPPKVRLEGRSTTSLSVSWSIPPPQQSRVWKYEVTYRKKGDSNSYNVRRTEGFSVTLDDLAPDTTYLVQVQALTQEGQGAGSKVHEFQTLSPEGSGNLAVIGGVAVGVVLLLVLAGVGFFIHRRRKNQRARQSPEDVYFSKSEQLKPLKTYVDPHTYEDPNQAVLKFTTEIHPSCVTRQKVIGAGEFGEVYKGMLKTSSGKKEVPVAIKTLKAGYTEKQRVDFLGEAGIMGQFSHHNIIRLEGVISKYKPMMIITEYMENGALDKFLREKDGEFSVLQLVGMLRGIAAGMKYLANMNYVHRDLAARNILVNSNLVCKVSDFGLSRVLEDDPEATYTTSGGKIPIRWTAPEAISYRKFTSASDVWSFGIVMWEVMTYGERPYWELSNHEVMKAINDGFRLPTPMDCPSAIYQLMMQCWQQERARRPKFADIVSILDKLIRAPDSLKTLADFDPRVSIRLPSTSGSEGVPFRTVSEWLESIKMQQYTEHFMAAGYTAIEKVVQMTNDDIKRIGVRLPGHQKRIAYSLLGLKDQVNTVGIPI
Procedure: In this standard pharmacological test procedure, a biotinylated peptide substrate is first immobilized on neutravidin-coated microtiter plates. The test drug, the Epithelial Cell Kinase (ECK), Mg^++, sodium vanadate (a protein tyrosine phosphatase inhibitor), and an appropriate buffer to maintain pH (7.2) are then added to the immobilized substrate-containing microtiter wells. ATP is then added to initiate phosphorylation. After incubation, the assay plates are washed with a suitable buffer leaving behind phosphorylated peptide which is exposed to horse radish peroxidase (HRP)-conjugated anti-phosphotyrosine monoclonal antibody. The antibody-treated plates are washed again and the HRP activity in individual wells is quantified as a reflection of degree of substrate phosphorylation. […] Multiple entries for a given compound indication it was tested multiple times.

[2] = target: T1, Kinase insert Domain containing Receptor (KDR: the catalytic domain of the VEGF receptor) (Homo sapiens, UniProt P35968); test: Inhibition of Kinase insert Domain containing Receptor (KDR), radioactive phosphorylation of Glu:Tyr copolymer; type: biochemical; details: IC50, substrate phosphorylation
T1 construct: KDR: the catalytic domain of the VEGF receptor
T1 sequence (P35968 834-1162 limits assumed): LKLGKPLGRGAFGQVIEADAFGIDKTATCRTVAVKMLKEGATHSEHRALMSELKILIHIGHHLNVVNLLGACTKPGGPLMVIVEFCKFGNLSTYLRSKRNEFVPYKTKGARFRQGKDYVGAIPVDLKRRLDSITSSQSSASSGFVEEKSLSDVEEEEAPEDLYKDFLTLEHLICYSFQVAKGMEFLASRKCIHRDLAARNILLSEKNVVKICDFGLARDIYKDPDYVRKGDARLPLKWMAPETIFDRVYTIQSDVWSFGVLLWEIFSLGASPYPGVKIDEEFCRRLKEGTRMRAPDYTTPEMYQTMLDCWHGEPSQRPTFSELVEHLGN
Procedure: In this standard pharmacological test procedure, KDR protein is mixed, in the presence or absence of a inhibitor compound, with a substrate peptide to be phosphorylated (a copolymer of glutamic acid and tyrosine, E:Y :: 4:1) and other cofactors such as Mg^++ and sodium vanadate (a protein tyrosine phosphatase inhibitor) in an appropriate buffer to maintain pH (7.2). ATP and a radioactive tracer (either P^32- or P^33- labeled ATP) is then add to initiate phosphorylation. After incubation, the radioactive phosphate associated with the acid-insoluble fraction of the assay mixture is then quantified as reflection of substrate phosphorylation. […] Multiple entries for a given compound indication it was tested multiple times.

A431 = test: Inhibition of Cancer Cell Growth as Measured by Cell Number (Sulforhodamine B); type: cell-based, Human; details: 48 hours exposure; for IC50: Homo sapiens, A-431, 48 h
Procedure: (§1) Human tumor cell lines were plated in 96-well plates (250 µl/well, 1-6 x 10^4 cells/ml) in RPMI 1640 medium, containing 5% FBS (Fetal Bovine Serum). […] After 48 hours exposure to test compounds, cells were fixed with trichloroacetic acid, and stained with Sulforhodamine B. After washing with trichloroacetic acid, bound dye was solubilized in 10 mM Tris base and optical density was determined using plate reader. Under conditions of the assay the optical density is proportional to the number of cells in the well. […] The test procedure is described in details by Philip Skehan et. al, J.Natl. Canc. Inst., 82, 1107-1112 (1990). […] Information about some of the cell lines used in these test procedures is available from the American Type Tissue Collection: Cell Lines and Hybridomas, 1994 Reference Guide, 8th Edition.

MDA-MB-435 = test: as above; type: cell-based, Human; details: 48 hours exposure; for IC50: Homo sapiens, MDA-MB-435, 48 h
Procedure: as §1

SK-BR3 = test: as above; type: cell-based, Human; details: 48 hours exposure; for IC50: Homo sapiens, SK-BR-3, 48 h
Procedure: as §1

SW620 = test: as above; type: cell-based, Human; details: 48 hours exposure; for IC50: Homo sapiens, SW-620, 48 h
Procedure: as §1

3T3/c-erbb2 = test: as above; type: cell-based; details: 48 hours exposure
Procedure: as §1

3T3 = test: as above; type: cell-based; details: 48 hours exposure; for IC50: Mus musculus, NIH3T3
Procedure: as §1

[3] = target: T2, epidermal growth factor receptor kinase (EGF-R Kinase, recombinant enzyme; His-tagged cytoplasmic domain of EGFR) (Homo sapiens, UniProt P00533); test: Inhibition of Epidermal Growth Factor Receptor Kinase (EGF-R) using recombinant enzyme, RR-SRC peptide phosphorylation, 33P-ATP; type: biochemical; details: for inhibition at 0.5 µM: read-out: %Inh @ 0.5 µM; for IC50: recombinant enzyme, 90 min at room temperature
T2 construct: EGFR cDNA encoding amino acids 645 - 1186 preceded by Met-Ala-(His)6; Met-Ala-(His)6 (N); made in house; host or cells: Sf9 insect cells, recombinant baculovirus vHcEGFR52
T2 sequence (P00533 669-1210): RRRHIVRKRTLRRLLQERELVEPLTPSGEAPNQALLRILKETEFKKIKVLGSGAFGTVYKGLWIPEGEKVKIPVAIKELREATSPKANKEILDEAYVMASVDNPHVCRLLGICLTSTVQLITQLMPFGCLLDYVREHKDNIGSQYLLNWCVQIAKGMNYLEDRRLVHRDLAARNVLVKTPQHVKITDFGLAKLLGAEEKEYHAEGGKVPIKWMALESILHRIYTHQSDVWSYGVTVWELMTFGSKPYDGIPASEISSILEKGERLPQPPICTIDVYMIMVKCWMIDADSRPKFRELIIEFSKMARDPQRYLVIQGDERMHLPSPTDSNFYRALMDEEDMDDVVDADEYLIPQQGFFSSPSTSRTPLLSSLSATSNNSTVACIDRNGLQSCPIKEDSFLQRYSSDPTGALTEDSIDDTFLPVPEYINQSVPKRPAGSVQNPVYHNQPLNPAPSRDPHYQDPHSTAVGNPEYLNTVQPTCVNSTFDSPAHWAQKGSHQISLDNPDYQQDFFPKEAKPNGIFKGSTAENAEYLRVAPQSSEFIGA
Procedure: Representative test compounds were evaluated for their ability to inhibit the phosphorylation of the tyrosine residue of a peptide substrate catalyzed by the enzyme epidermal growth factor receptor kinase. The peptide substrate (RR-SRC) has the sequence arg-arg-leu-ile-glu-asp-ala-glu-tyr-ala-ala-arg-gly. The enzyme used in this test procedure is the His-tagged cytoplasmic domain of EGFR. A recombinant baculovirus (vHcEGFR52) was constructed containing the EGFR cDNA encoding amino acids 645 - 1186 preceded by Met-Ala-(His)6. Sf9 cells in 100 mm plates were infected at an moi of 10 pfu/cell and cells were harvested 48 h post infection. A cytoplasmic extract was prepared using 1% Triton X-100 and applied to Ni-NTA column. After washing the column with 20 mM imidazole, HcEGFR was eluted with 250 mM imidazole (in 50 mM Na2HPO4, pH 8.0, 300 mM NaCl). Fractions collected were dialyzed against 10 mM HEPES, pH 7.0, 50 mM NaCl, 10% glycerol, lug/mL antipain and leupeptin and 0.1 mM Pefabloc SC. The protein was frozen in dry ice/methanol and stored -70°C.
Test compounds were made into 10 mg/mL stock solutions in 100% dimethylsulfoxide (DMSO). Prior to experiment, stock solutions were diluted to 500 uM with 100% DMSO and then serially diluted to the desired concentration with HEPES buffer (30 mM HEPES pH 7.4).
For the enzyme reaction, 10 uL of each inhibitor (at various concentrations) were added to each well of a 96-well plate. To this was added 3 uL of enzyme (1:10 dilution in 10mM HEPES, pH 7.4 for final cone. of 1:120). This was allowed to sit for 10 min on ice and was followed by the addition of 5 ul peptide (80 uM final cone.), 10ul of 4X Buffer (Table A), 0.25 uL ^33P-ATP and 12 uL H2O. The reaction was allowed to run for 90 min at room temperature and was followed by spotting the entire volume on to precut P81 filter papers. The filter discs were washed 2X with 0.5% phosphoric acid and radioactivity was measured using a liquid scintillation counter.
The inhibition data for representative compounds of the invention are shown below in TABLE 1. […] The % inhibition of the test compound was determined for at least three different concentrations and the IC50 value was evaluated from the dose response curve. […] CPM(control) is in units of counts per minute and was a number expressing the amount of radiolabled ATP (γ-^33P) incorporated into the RR-SRC peptide substrate by the enzyme after 90 minutes at room temperature in the absence of test compound as measured by liquid scintillation counting. The CPM values were corrected for the background counts produced by ATP in the absence of the enzymatic reaction. […]

[4] = target: Recombinant human MEK 1 (MAPKK) / recombinant human ERK2 (MAPK) (Mek-Erk) (Homo sapiens, UniProt P28482+Q02750); test: Mitogen Activated Protein Kinase (MAPK) assay, two component coupled Mek-Erk test; type: biochemical
Chain of Recombinant human MEK 1 (MAPKK) / recombinant human ERK2 (MAPK) (Mek-Erk) (P28482 2-360): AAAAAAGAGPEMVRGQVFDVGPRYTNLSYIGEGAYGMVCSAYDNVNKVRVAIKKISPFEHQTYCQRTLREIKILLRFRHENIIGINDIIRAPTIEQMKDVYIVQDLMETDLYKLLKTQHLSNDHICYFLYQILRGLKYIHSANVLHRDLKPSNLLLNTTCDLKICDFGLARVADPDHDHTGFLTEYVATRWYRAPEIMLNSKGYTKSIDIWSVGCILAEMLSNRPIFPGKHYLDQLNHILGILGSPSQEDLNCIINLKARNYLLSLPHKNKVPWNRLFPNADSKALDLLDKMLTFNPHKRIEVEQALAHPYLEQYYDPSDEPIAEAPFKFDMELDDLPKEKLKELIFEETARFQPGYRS
Chain of Recombinant human MEK 1 (MAPKK) / recombinant human ERK2 (MAPK) (Mek-Erk) (Q02750 whole entry): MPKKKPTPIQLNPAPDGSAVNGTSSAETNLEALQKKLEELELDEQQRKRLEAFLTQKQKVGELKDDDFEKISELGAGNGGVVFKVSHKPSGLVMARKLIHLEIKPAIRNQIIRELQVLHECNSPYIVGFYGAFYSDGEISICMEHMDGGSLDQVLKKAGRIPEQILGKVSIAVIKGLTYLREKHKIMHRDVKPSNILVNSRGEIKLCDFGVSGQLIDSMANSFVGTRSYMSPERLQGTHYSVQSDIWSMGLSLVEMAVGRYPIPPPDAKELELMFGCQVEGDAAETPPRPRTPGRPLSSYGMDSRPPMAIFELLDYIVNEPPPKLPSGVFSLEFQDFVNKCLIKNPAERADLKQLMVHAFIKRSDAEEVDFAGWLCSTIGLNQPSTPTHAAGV
Procedure: To evaluate inhibitors of the MAP (mitogen activated protein) kinase a two component coupled standard pharmacological test procedure, which measures phosphorylation of a serine/threonine residue in an appropriate sequence in the substrate in the presence and absence of a putative inhibitor, was used. Recombinant human MEK 1 (MAPKK) was first used to activate recombinant human ERK2 (MAPK) and the activated MAPK (ERK) was incubated with substrate (MBP peptide or MYC peptide) in the presence of ATP, Mg^+2 and radiolabeled ^33P ATP. The phosphorylated peptide was captured on a P 81 phosphocellulose filter (paper filter or embedded in microtiter plate) washed and counted by scintillation methods.
The peptide substrates used in the assay are MBP, peptide substrate ([sequence]), or synthetic Myc substrate, ([sequence]•5 TFA. The recombinant enzymes used were prepared as GST fusion proteins of human ERK 2 and human MEK 1. Inhibitor samples were prepared as 10X stocks in 10% DMSO and an appropriate aliquot was used to deliver either 10 ug/ml for a single point screening dose or 100, 10, 1, and 0.1 uM final concentration for a dose response curve. Final DMSO concentrations were less than or equal to 1%.
The reaction was run as follows in 50 mM Tris kinase buffer, pH 7.4 in a reaction volume of 50 ul. The appropriate volume of kinase buffer and inhibitor sample was added to the tube. Appropriate dilution of enzyme was delivered to give 2-5 ug recombinant MAPK (Erk ) per tube. The inhibitor was incubated with MAPK (Erk) for 30 min at 0° C. Recombinant Mek (MAPKK) ( 0.5-2.5 ug) or fully activated Mek (0.05-0.1 units) was added to activate the Erk and incubated for 30 min at 30° C. Then substrate and gamma ^33P ATP was were added to give a final concentration of 0.5- 1 mM MBPP or 250-500 uM Myc; 0.2-0.5 uCi gamma P 33 ATP/tube; 50 µM ATP final concentration. Samples were incubated at 30°C for 30 minutes and the reaction was stopped by adding 25 µl of ice cold 10 %TCA .After samples were chilled on ice for 30 min, 20 µl of sample was transferred onto P 81 phosphocellulose filter paper or appropriate MTP with embedded P 81 filter. Filter papers or MTP were washed 2 times with a large volume of 1% acetic acid, then 2 times with water. The filters or MTP were briefly air dried before addition of scintillant and samples were counted in the appropriate scintillation counter set up for reading ^33P isotope.
The raw data was captured as cpm. Sample replicates were averaged and corrected for background count. Mean cpm data was tabulated by group and % inhibition by a test compound was calculated as (corrected cpm control- corrected. cpm sample/control) X 100 = % inhibition.

Compound | IC50 [1] [µM] | IC50 [2] | inhibition at 0.5 µM [3] [%] | IC50 [3] [µM] | IC50 ([4]; read-out: Mek-Erk) | further results
4-(2,3-Dihydro-benzo[1,4]dioxin-6-ylamino)-6,7-diethoxy-quinoline-3-carbonitrile [Example 105] | > 51.1 | 76.6 µM |  |  |  | IC50 µg/mL A431 (A431): 0.270 µg/mL; IC50 µg/mL MDA-MB-435 (MDA-MB-435): 0.235 µg/mL; IC50 µg/mL SK-BR3 (SK-BR3): 0.281 µg/mL; IC50 µg/mL SW620 (SW620): 0.411 µg/mL; IC50 µg/mL 3T3/c-erbb2 (3T3/c-erbb2): 0.375 µg/mL; IC50 µg/mL 3T3 (3T3): 0.853 µg/mL
COc1cc2ncc(C#N)c(Nc3ccc4sc(C)nc4c3)c2cc1OC [Example 130, 6,7-Dimethoxy-4-(2-methyl-benzothiazol-5-ylamino)-quinoline-3-carbonitrile] | > 26.6 | > 26.6 µM | 5 | > 1 | > 100 µM | 
COc1cc2ncc(C#N)c(Nc3ccc(O)c4ncccc34)c2cc1OC [Example 135, 4-(8-Hydroxy-quinolin-5-ylamino)-6,7-dimethoxy-quinoline-3-carbonitrile] | 0.537 | 26.9 µM | 0 | > 1 | > 100 µM | 
COc1ccc2ncc(C#N)c(Nc3ccc4nn[nH]c4c3)c2c1 [Example 142, 4-(3H -Benzotriazol-5-ylamino)-6-methoxy-quinoline-3-carbonitrile] | > 31.6 | 94.8 µM | 24 | > 1 | 30 µM | 
COc1cc2ncc(C#N)c(Nc3cccc4cccnc34)c2cc1OC [Example 134, 6,7-Dimethoxy-4-(quinolin-8-ylamino)-quinoline-3-carbonitrile] | > 28.1 | > 28.1 µM | 35 | > 1 | > 100 µM | 
COc1cc2ncc(C#N)c(Nc3cccc4cnccc34)c2cc1OC [Example 133, 4-(Isoquinolin-5-ylamino)-6,7-dimethoxy-quinoline-3-carbonitrile] | > 28.1 | > 28.1 µM | 0 | > 1 | 90 µM | 
COc1cc2ncc(C#N)c(Nc3cccc4ncccc34)c2cc1OC [Example 132, 6,7-Dimethoxy-4-(quinolin-5-ylamino)-quinoline-3-carbonitrile] | > 28.1 | > 28.1 µM | 0 | > 1 | 90 µM | 
COc1cc2ncc(C#N)c(Nc3ccc4ncccc4c3)c2cc1OC [Example 153, 6,7-Dimethoxy-4-(quinoline-6-ylamino)-quinoline-3-carbonitrile] | > 28.1 | > 28.1 µM | 14 | > 1 | > 100 µM | 
COc1ccc2c(Nc3ccc4nn[nH]c4c3)c(C#N)cnc2c1 [Example 144, 4-(3H -benzotriazol-5-ylamino)-7-methoxy-quinoline-3-carbinitile] | > 31.6 | > 94.8 µM and 94.8 µM | 14 | > 1 |  | IC50 ([4]; read-out: Mek-Erk µM): > 100 µM
COc1cc2ncc(C#N)c(Nc3ccc4c(C)cc(=O)[nH]c4c3)c2cc1OC [Example 129, 6,7-Dimethoxy-4-(4-methyl-2-oxo-1,2-dihydro-quinolin-7-ylamino)-quinoline-3-carbonitrile] | > 25.9 | > 25.9 µM | 6.7 | > 1 | > 100 µM | 
COc1cc2ncc(C#N)c(Nc3ccc4[nH]c(=O)sc4c3)c2cc1OC [Example 131, 6,7-Dimethoxy-4-(2-oxo-2,3-dihydro-benzothiazol-6-ylamino)-quinoline-3-carbonitrile] | > 26.4 | > 26.4 µM | 0 | > 1 | > 100 µM | 
COc1ccc2ncc(C#N)c(Nc3ccc4cn[nH]c4c3)c2c1 [Example 141, 4-(1H -Indazol 6-ylamino)-6-methoxy-quinoline-3-carbonitrile] | > 31.7 | 63.4 µM | 5.5 | > 1 | 1.1 µM and 2 µM | 
CCOc1cc2ncc(C#N)c(Nc3ccc4c(=O)[nH][nH]c(=O)c4c3)c2cc1OCC [Example 107, 4-(1,4-Dioxo-1,2,3,4-tetrahydro-phthalazin-6-ylamino)-6,7-diethoxy-quinoline-3-carbonitrile] | > 47.9 | > 71.9 µM |  |  |  | IC50 (A431): > 5 µg/mL; IC50 (MDA-MB-435): > 5 µg/mL; IC50 (SK-BR3): > 5 µg/mL; IC50 (SW620): > 5 µg/mL; IC50 (3T3/c-erbb2): > 5 µg/mL; IC50 (3T3): > 5 µg/mL
COc1cc2c(Nc3ccc4nn[nH]c4c3)c(C#N)cnc2c(OC)c1OC [Example 156, 4-(3H-Benzotriazol-5-ylamino)-6,7,8-Trimethoxy-quinoline-3-carbonitrile] | > 26.6 | > 79.7 µM | 34 | > 1 |  | IC50 ([4]; read-out: Mek-Erk µM): 35 µM
COc1cccc2c(Nc3ccc4nn[nH]c4c3)c(C#N)cnc12 [Example 149, 4-(3H -benzotriazol-5-ylamino)-8-methoxy-quinoline-3-carbonitrile] | > 31.6 | > 94.8 µM | 9 | > 1 |  | IC50 ([4]; read-out: Mek-Erk µM): > 100 µM
COCCOc1cc2ncc(C#N)c(Nc3ccc4cn[nH]c4c3)c2cc1OCCOC [Example 106, 4-(1H-Indazol-6-ylamino)-6,7-bis-(2-methoxy-ethoxy)-quinoline-3-carbonitrile] | > 46.1 | 23.1 µM |  |  |  | IC50 (A431): 1.96 µg/mL (≈ 4.52 µM); IC50 (MDA-MB-435): 2.04 µg/mL (≈ 4.72 µM); IC50 (SK-BR3): > 5 µg/mL; IC50 (SW620): > 5 µg/mL; IC50 (3T3/c-erbb2): > 5 µg/mL; IC50 (3T3): > 5 µg/mL
COc1cccc2c(Nc3ccc4cn[nH]c4c3)c(C#N)cnc12 [Example 148, 4-(1H -Indazol-6-ylamino)-8-methoxy-quinoline-3-carbonitrile] | > 63.4 | > 95.1 µM | 11 | > 1 | > 100 µM | 
